In ChEMBL document CHEMBL3132794, “Imidazolium salts as antifungal agents: activity against emerging yeast pathogens, without human leukocyte toxicity” (Medchemcomm, 2013):
≈ marks a conversion by molar mass, not a printed value.

How the values were obtained:
[1] = tested on: Candida parapsilosis; assay: Antifungal activity against Candida parapsilosis clinical isolates by broth microdilution method; assay type: functional; details: Lodderomyces parapsilosis
[2] = tested on: Trichosporon asahii; assay: Antifungal activity against Trichosporon asahii clinical isolates by broth microdilution method; assay type: functional
[3] = tested on: Nakaseomyces glabratus; assay: Antifungal activity against Candida glabrata clinical isolates by broth microdilution method; assay type: functional
[4] = tested on: Candida tropicalis; assay: Antifungal activity against Candida tropicalis clinical isolates by broth microdilution method; assay type: functional
[5] = Genotoxicity in human Leukocyte cells assessed as induction of DNA single strand breaks by single gel electrophoresis based alkaline comet assay; assay type: toxicity, cell-based
[6] = Toxicity against human Leukocyte cells assessed as reduction in cell viability by trypan blue exclusion assay; assay type: cell-based
[7] = Toxicity against human Leukocyte cells assessed induction of structural damage by microscopy; assay type: cell-based
[8] = tested on: Candida parapsilosis; assay: Inhibition of ergosterol biosynthesis in Candida parapsilosis clinical isolates assessed as reduction in mean cellular ergosterol content by spectrophotometry; assay type: functional
[9] = tested on: Candida tropicalis; assay: Inhibition of ergosterol biosynthesis in Candida tropicalis clinical isolates assessed as reduction in mean cellular ergosterol content by spectrophotometry; assay type: functional
[10] = tested on: Nakaseomyces glabratus; assay: Inhibition of ergosterol biosynthesis in Candida glabrata clinical isolates assessed as reduction in mean cellular ergosterol content by spectrophotometry; assay type: functional
[11] = tested on: Trichosporon asahii; assay: Inhibition of ergosterol biosynthesis in Trichosporon asahii clinical isolates assessed as reduction in mean cellular ergosterol content by spectrophotometry; assay type: functional

Row | SMILES | MIC [1] [µg/mL] | MIC50 [1] [µg/mL] | MIC [2] [µg/mL] | MIC50 [2] [µg/mL] | MIC [3] [µg/mL] | MIC50 [3] [µg/mL] | MIC [4] [µg/mL] | MIC50 [4] [µg/mL] | Activity [5] | Activity [6] | Activity [7] | inhibition (INH) [8] [%] | inhibition (INH) [9] [%] | inhibition (INH) [10] [%] | inhibition (INH) [11] [%]
1 | CCCCCCCCCCn1cc[n+](C)c1.[Cl-] | 1.9 | 7.8 | 7.8 | 31.2 | 7.8 | 15.6 | 0.9 | 1.9 | Non-toxic | Non-toxic | Non-toxic | – | – | – | –
2 | CCCCCCCCCCCCCCCCn1cc[n+](C)c1.F[P-](F)(F)(F)(F)F | 0.9 | 7.8 | 15.6 | 15.6 | 1.9 | 3.9 | 0.9 | 1.9 | Non-toxic | Non-toxic | Non-toxic | – | – | – | –
3 | CCCCCCCCCCn1cc[n+](C)c1.CS(=O)(=O)[O-] | 1.9 | 7.8 | 31.2 | 62.5 | 15.6 | 31.2 | 1.9 | 1.9 | Non-toxic | Non-toxic | Non-toxic | – | – | – | –
4 | CCCCCCCCCCCCCCCCn1cc[n+](C)c1.F[B-](F)(F)F | 0.4 | 3.9 | 1.95 | 3.9 | 0.9 | 0.9 | 0.9 | 0.9 | Non-toxic | Non-toxic | Non-toxic | 33 | 33 | 33 | 33
5 | CCCCCCCCCCCCCCn1cc[n+](C)c1.O=S(=O)([N-]S(=O)(=O)C(F)(F)F)C(F)(F)F | 0.9 | 0.9 | 31.2 | 62.5 | 3.9 | 15.6 | 0.9 | 0.9 | Non-toxic | Non-toxic | Non-toxic | – | – | – | –
6 | CCCCCCCCCCCCCCCCn1cc[n+](C)c1.[Cl-] | 0.9 | 0.9 | 0.9 | 0.9 | 0.9 | 0.9 | 0.9 | 0.9 | Non-toxic | Non-toxic | Non-toxic | – | – | – | –
7 | OC(Cn1cncn1)(Cn1cncn1)c1ccc(F)cc1F [FLUCONAZOLE] | 1 (≈ 3.27 µM) | 1 (≈ 3.27 µM) | 4 (≈ 13.1 µM) | 8 (≈ 26.1 µM) | 4 (≈ 13.1 µM) | 8 (≈ 26.1 µM) | 2 (≈ 6.53 µM) | 8 (≈ 26.1 µM) | – | – | – | – | – | – | –
8 | CC(=O)N1CCN(c2ccc(OCC3COC(Cn4ccnc4)(c4ccc(Cl)cc4Cl)O3)cc2)CC1 (stereo unspecified) [KETOCONAZOLE] | 0.125 (≈ 0.235 µM) | 1 (≈ 1.88 µM) | 0.25 (≈ 0.47 µM) | 4 (≈ 7.53 µM) | 0.5 (≈ 0.941 µM) | 4 (≈ 7.53 µM) | 0.25 (≈ 0.47 µM) | 4 (≈ 7.53 µM) | – | – | – | – | – | – | –
